Assays:
[1] = biological target: T1, Human β-cardiac myosin (2-hep and 25-hep HMM) (Homo sapiens, UniProt P12883); assay: basal ATPase assay of recombinant HMM; assay type: biochemical
T1 construct: gene MYH7

[2] = biological target: T2, β-cardiac full-length myosin (Bos taurus, UniProt Q9BE39); assay: basal ATPase, enzymatically coupled assay on purified myosin; assay type: biochemical
T2 construct: gene MYH7; full-length myosin in synthetic thick filaments; also HMM and S1-subfragment
T2 sequence (Q9BE39 whole entry, the tested form may be a part): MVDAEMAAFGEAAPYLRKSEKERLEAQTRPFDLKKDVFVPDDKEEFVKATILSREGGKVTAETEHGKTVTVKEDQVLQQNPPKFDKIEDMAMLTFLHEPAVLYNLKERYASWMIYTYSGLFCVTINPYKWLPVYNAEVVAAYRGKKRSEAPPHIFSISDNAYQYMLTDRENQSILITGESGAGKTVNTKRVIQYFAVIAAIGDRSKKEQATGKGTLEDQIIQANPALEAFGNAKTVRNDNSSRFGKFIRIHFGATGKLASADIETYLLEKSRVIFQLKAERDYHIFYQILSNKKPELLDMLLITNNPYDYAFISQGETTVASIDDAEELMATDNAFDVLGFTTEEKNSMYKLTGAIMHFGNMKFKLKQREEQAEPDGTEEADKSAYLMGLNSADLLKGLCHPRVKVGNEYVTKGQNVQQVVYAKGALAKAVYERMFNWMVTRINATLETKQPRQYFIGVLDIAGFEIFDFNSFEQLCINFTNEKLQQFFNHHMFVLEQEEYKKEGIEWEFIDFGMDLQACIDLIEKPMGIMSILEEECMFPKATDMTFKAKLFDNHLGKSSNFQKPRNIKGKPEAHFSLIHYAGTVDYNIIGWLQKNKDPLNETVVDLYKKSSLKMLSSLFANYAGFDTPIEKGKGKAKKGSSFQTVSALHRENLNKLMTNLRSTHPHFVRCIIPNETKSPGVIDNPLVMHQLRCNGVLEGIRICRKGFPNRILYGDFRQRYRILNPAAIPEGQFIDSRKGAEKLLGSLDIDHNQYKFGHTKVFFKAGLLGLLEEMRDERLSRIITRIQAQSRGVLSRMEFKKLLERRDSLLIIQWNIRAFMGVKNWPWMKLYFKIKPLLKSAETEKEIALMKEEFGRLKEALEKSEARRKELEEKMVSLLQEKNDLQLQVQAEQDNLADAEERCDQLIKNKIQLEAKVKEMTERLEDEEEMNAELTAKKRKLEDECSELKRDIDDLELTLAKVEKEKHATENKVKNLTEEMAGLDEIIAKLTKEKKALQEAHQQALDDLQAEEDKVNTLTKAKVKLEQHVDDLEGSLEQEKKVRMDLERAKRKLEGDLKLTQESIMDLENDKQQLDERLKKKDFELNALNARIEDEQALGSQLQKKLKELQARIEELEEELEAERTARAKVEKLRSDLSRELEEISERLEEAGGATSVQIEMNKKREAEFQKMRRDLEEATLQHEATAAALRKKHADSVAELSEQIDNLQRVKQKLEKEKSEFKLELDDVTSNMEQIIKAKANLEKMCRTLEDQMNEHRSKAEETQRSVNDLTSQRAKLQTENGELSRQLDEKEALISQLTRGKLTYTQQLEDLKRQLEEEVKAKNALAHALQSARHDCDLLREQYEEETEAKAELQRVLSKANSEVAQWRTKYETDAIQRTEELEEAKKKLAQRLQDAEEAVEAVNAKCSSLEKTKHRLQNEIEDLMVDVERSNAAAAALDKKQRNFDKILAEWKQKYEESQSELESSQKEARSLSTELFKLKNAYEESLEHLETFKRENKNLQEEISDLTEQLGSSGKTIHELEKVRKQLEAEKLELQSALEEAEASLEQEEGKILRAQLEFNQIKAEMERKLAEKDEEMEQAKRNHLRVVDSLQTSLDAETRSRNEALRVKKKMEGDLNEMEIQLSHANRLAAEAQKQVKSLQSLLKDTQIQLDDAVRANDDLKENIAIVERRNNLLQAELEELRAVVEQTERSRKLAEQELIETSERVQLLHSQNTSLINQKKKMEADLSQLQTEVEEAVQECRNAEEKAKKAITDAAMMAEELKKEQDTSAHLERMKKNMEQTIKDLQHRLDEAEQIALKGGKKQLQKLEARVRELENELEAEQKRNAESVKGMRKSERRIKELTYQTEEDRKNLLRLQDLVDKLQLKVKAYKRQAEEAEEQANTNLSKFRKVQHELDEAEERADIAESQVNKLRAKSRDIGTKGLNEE

T1 sequence (P12883 1-855): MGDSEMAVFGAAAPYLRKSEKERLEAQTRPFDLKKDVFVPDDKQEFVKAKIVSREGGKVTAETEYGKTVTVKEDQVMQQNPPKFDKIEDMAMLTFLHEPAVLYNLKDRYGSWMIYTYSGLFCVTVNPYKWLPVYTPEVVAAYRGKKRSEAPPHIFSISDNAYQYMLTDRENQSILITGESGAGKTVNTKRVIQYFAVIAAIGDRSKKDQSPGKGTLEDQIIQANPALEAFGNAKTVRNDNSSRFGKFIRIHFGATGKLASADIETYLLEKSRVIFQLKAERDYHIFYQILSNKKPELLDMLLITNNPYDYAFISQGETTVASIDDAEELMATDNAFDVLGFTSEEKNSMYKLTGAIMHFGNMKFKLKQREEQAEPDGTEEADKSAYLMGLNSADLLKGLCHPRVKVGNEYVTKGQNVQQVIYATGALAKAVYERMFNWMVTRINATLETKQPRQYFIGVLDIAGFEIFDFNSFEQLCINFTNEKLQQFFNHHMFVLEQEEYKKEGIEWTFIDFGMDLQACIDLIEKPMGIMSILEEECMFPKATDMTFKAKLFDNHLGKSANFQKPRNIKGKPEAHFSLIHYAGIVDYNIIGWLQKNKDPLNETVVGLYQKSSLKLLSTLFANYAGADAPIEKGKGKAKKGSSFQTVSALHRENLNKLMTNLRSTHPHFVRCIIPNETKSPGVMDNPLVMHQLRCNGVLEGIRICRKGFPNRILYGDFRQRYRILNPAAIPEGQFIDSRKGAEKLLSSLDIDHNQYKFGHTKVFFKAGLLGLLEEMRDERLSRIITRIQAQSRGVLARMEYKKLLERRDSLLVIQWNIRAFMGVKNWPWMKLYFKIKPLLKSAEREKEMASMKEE

`Nc1ncnc2c1ncn2[C@@H]1O[C@H](COP(=O)(O)OP(=O)(O)OP(=O)(O)O)[C@@H](O)[C@H]1O` [ATP] was tested, and the “Raw values at pCa 8” value [1] was 0.1 ± 0.05 s^−1 and the “Raw values at pCa 8” value [2] was 0.03 ± 0.01 s^−1.

— publication PMC9629851, “Cardiac myosin filaments are directly regulated by calcium” (The Journal of General Physiology, 2022)
